From patent US6696478B2, “Cancer treatment with Gö6976 and its related compounds” (priority 1999, dated 2004)

What was measured:
[1] = test system: DU145 human prostate cancer cells; test: Cell viability assay (trypan blue), prostate cancer cells, second set; type: cell-based; details: approximately 5×10^5 cells seeded, seven days after treatment
Method: DU145 human prostate cancer cells,
(§1) These cells were maintained in Dulbecco's modified Eagle medium (DMEM) supplemented with 10 percent bovine calf serum.
(§2) Cells were seeded for 24 hours. Then they were either treated with Gö6976, C-o 002, or C-o 003, or left untreated. The cells were then collected periodically and evaluated using trypan blue dye exclusion to asses viability using the method described by CY Chen, et al, in J.Biol. Chem. 273:16700-16709.
(§3) Two sets of approximately 5×10^5 DU145 prostate cancer cells, HepG2 liver cancer cells, AGS gastric cancer cells, and T84 colorectal cancers were seeded and 24 hours later one of the sets were treated with 2 μm Gö6976. Seven days after treatment, viable cells were counted.
(§4) Two sets of approximately 5×10^5 human MDA-MB-468 breast cancer cells, DU145 human prostate cancer cells, A549 lung cancer cells, AGS gastric cancer cells, and T84 colorectal cancer cells were seeded and treated with 14 μm C-o 002 and C-o 003 24 hours later. Seven days after treatment, viable cells were counted.

[2] = test system: HepG2 human liver cancer cells; test: Cell viability assay (trypan blue), liver cancer cells, second set; type: cell-based; details: seven days after treatment
Method: HepG2 human liver cancer cells,
as §1, §2, §3, §4

[3] = test system: T84 human colorectal cancer cells; test: Cell viability assay (trypan blue), colorectal cancer cells, second set; type: cell-based; details: approximately 5×10^5 cells seeded, seven days after treatment
Method: T84 human colorectal cancer cells,
as §1, §2, §3, §4

[4] = test system: MDA-MB-468 human breast cancer cells; test: Cell viability assay (trypan blue), breast cancer cells, second set; type: cell-based; details: 14 μm compound; approximately 5×10^5 cells seeded; seven days after treatment
Method: MDA-MB-468 human breast cancer cells
as §1, §2, §4

[5] = test system: AGS human gastric cancer cells; test: Cell viability assay (trypan blue), gastric cancer cells, second set; type: cell-based; details: approximately 5×10^5 cells seeded, seven days after treatment
Method: AGS human gastric cancer cells,
as §1, §2, §3, §4

[6] = test system: A549 human lung cancer cells; test: Cell viability assay (trypan blue), lung cancer cells, second set; type: cell-based; details: 14 μm compound; approximately 5×10^5 cells seeded; seven days after treatment
Method: A549 human lung cancer cells,
as §1, §2, §4

[7] = test system: PKC α; details: cited from earlier work
[8] = test system: Small cell lung cancer cells (NCI-H048); test: Cell viability assay (trypan blue), small cell lung cancer cells; type: cell-based; details: treated with Gö6976 (concentration not given); about 5×10^5 cells at start; day 4 (FIG. 5)
Method: Small cell lung cancer cells (NCI-H048),
(§5) Small cell lung cancer cells were grown in RPMI 1640 medium with 2 mM L-glutamine adjusted to contain 1.5 g/L sodium bicarbonate, 4.5 g/L glucose, 10 mM HEPES, 1.0 mM sodium pyruvate, and 5% fetal bovine serum. Non-small cell lung cancer cells were grown in RPMI 1640 medium supplemented with 5% fetal bovine serum, 5 ug/ml insulin, 10 ug/ml transferrin, 30 nM sodium selenite, 10 nM hydrocortisone, 10 nM beta-estradiol, 10 mM HEPES, and 2 mM L- glutamine.
(§6) Cells were seeded for 24 hours. Then they were either treated with Gö6976 or left untreated. The cells were then collected periodically and evaluated using trypan blue dye exclusion to asses viability using the method described by CY Chen, et al, in J.Biol. Chem. 273:16700-16709.
(§7) Two samples each of about 5×10^5 cells small lung cancer cells and non-small lung cancer cells were prepared and one sample of each type was treated with Gö6976 and the viable cells were counted at day 4. In the untreated samples the cancer cells had multiplied by almost a factor of 10 and in the treated samples the count had decreased to less than 0.5 of the original count.

[9] = test system: Hela human cervical cancer cells; test: Cell growth, cervical cancer cells, second set; type: cell-based; details: 2 μm Gö6976 for 7 days; approximately 5×10^5 cells seeded (FIG. 10)
Method: Hela human cervical cancer cells
as §1, §2
(§8) Two sets of approximately 5×10^5 C6 glioma cells and Hela cervical cancer cells were seeded and treated or untreated with 2 μm Gö6976 for 7 days.

[10] = test system: 3Y1 cells overexpressing EGF receptors; test: Anchorage-independent cell growth in soft agar (EGF-induced colony formation); type: cell-based, rat; details: 100 ng/ml EGF and 250 nanamoles Gö6976; three weeks in soft agar (FIG. 8)
Text: (§9) 3Y1 rat fibroblast cells overexpressing the epidermal growth factor receptor (EGFR).
For growth of these cells in soft agar, 1×10^3 cells were suspended in top agar (consisting of 20 percent calf serum, 0.38 percent agar and the remainder DMEM) and overlaid onto hardened bottom agar (DMEM, 20 percent calf serum and 0.7 percent agar) as reported by Sementchenko et al, in Onocgen 17:2883-2888.
The effect of Gö6976 on blocking EGF-induced cell transformation was further confirmed by checking anchorage-independent cell growth. […] One sample was left untreated, one was treated with 100 ng/ml of EGF, one sample was treated with 100 ng/ml of EGF and 250 nanamoles of Gö6976 and one sample was treated with 250 nanaomoles of Gö6976. In each case the percentage of cell forming colonies were determined three weeks after suspending the cells in soft agar.

[11] = test system: HL60 human acute promyelocytic leukemia cells; test: Cell viability assay (trypan blue), leukemia cells; type: cell-based; details: 2 micromoles Gö6976; 5×10^5 cells at start; after four days (FIG. 4)
Method: HL60 human acute promyelocytic leukemia cells were grown in RPMI 1640 medium containing 10 percent heat-inactivated fetal bovine serum (FBS).
as §6
One of two samples of 5×10^5 cells was treated with 2 micromoles of Gö6976 and the viable cells were counted after four days. At four days the cells in the untreated sample had grown by a factor of nearly 10 to almost 5×10^6 cells whereas viable cells in the treated sample was less than 0.2×10^5.

[12] = test system: 3Y1 cells overexpressing EGF receptors; test: EGF-induced cell transformation (morphology); type: cell-based, rat
Text: as §9, §1

[13] = test system: U-2 OS human osteosacoma cells; test: Cell viability assay (trypan blue), osteosarcoma cells; type: cell-based; details: 2 micromoles Gö6976; about 5×10^5 cells at start; after four days (FIG. 6)
Method: U-2 OS human osteosacoma cells,
as §1, §6
One of two samples of about 5×10^5 cells was treated with 2 micromoles of Gö6976 and the viable cells were counted after four days.

[14] = test system: C6 glioma cells; test: Cell growth, brain tumor cells, second set; type: cell-based; details: 2 μm Gö6976 for 7 days; approximately 5×10^5 cells seeded (FIG. 10)
Method: as §1, §2, §8

[15] = test system: A431 human epidermoid carcinoma cells; test: Cell viability assay (trypan blue), epidermoid carcinoma cells; type: cell-based; details: 2 micromoles Gö6976; about 5×10^5 cells at start; at four days; untreated grew by a factor of about 24 (FIG. 7)
Method: A431 human epidermoid carcinoma cells,
as §1, §6
One of two samples of about 5×10^5 cells was treated with 2 micromoles of Gö6976 and the viable cells were counted each 24 hours for four days.

[16] = test system: normal cells including rat 3Y1 fibroblast; test: Toxic effects on normal cells; type: cell-based
Text: Toxic effects begin to show up at concentrations of about 5 micromoles in these types of cells.

[17] = test system: Non-small cell lung cancer cells (NCI-H2342); test: Cell viability assay (trypan blue), non-small cell lung cancer cells; type: cell-based; details: treated with Gö6976 (concentration not given); about 5×10^5 cells at start; day 4 (FIG. 5)
Method: Non-small cell lung cancer cells (NCI-H2342).
as §5, §6, §7

[18] = test system: human breast cancer cells (MDA-MB-468 and MDA-MB-453); test: Cell viability assay (trypan blue dye exclusion), breast cancer cells, first set; type: cell-based; details: for viable cell count: about 5×10^5 cells at start, counted at day 4 (FIG. 2)
Method: MDA-MB-468 human breast cancer cells,
MDA-MB-453 human breast cancer cells,
as §1, §6
In both FIG. 2 and FIG. 3 error bars indicated the estimated standard error based on three independent experiments.

With `NCCCn1c2ccccc2c2c3c(c4c5ccccc5[nH]c4c21)CNC3` [C-o 002, 12-(3-Aminopropyl)-5,6,7,12,13-pentahydro-indolo[2,3,-a] pyrrolo [3,4-c] carbazole] the viable cells counted ([1]; 14 μm compound) was 0, the viable cells counted ([2]; 14 μm compound) was 0 and the viable cells counted ([3]; 14 μm compound) was 1.9 × 10^4. For the same molecule, the viable cells counted [4] was 0, the viable cells counted ([5]; 14 μm compound) was 0 and the viable cells counted [6] was 7 × 10^5.
In the case of `Cl.NCCCn1c2ccccc2c2c3c(c4c5ccccc5[nH]c4c21)CNC3` [C-o 003, 12-(3-Aminopropyl)-5,6,7,12,13-pentahydro-indolo[2,3,-a] pyrrolo [3,4-c] carbazole hydrochloride], the viable cells counted ([1]; 14 μm compound) is reported as 0, the viable cells counted ([2]; 14 μm compound) is reported as 0 and the viable cells counted ([3]; 14 μm compound) is reported as 2.7 × 10^4. For the same molecule, the viable cells counted [4] was 0, the viable cells counted ([5]; 14 μm compound) was 0 and the viable cells counted [6] was 8.5 × 10^5.
For `Cn1c2ccccc2c2c3c(c4c5ccccc5n(CCC#N)c4c21)CNC3=O` [Gö6976, 12-(2-Cyanoethyl)-6,7,12,13-tetrahydro-13-methyl-5-oxo-5H-indolo[2,3-a]pyrrolo[3,4-c]carbazole], the “TPA-induced downregulation of PKC α” value [7] is listed as “prevented TPA-induced downregulation”, the “viable cell count relative to the original count” value [8] is listed as “less than 0.5” and the viable cells counted ([1]; 2 μm Gö6976) is listed as 0. The cell growth [9] was “significant inhibited the growth”, the viable cells counted ([2]; 2 μm Gö6976, approximately 5×10^5 cells seeded) was 0 and the “colony forming efficiency of EGF (percentage of cell forming colonies)” value [10] was “greatly reduced”. For the same molecule, the “viable cells in the treated sample” value [11] was “less than 0.2×10^5”, the “toxic effect on 3Y1 EGFR cells” value ([12]; Gö6976 alone) was “did not show any toxic effect” and the “EGF-induced cell transformation (transformed morphology)” value ([12]; co-treatment with 250 nanamoles Gö6976 and 100 ng/ml EGF, 24 hours) was “completely blocked”. For the same molecule, the “viable cells in the treated sample relative to the original count” value [13] was “reduced to about half the original count”, the viable cells counted ([3]; 2 μm Gö6976) was 1.1 × 10^4 and the cell growth [14] was “significant inhibited the growth”. The “viable cells in the treated sample relative to the original count” value [15] was “approximately doubled”, the “toxic effects on normal cells” value ([16]; concentrations used in the first set of experiments) was “no significant toxic effects” and the “concentration at which toxic effects begin to show up” value ([16]; normal cells) was “about 5 micromoles”. For the same molecule, the “viable cell count relative to the original count” value [17] was “less than 0.5”, the viable cells counted ([5]; 2 μm Gö6976) was 0 and the viable cell count ([18]; 1 micromole Gö6976) was “about 1×10^5”. The viable cell count ([18]; 2.0 micromolar Gö6976) was “less than 0.3×10^5” and the “viable cell concentration over time” value ([18]; 2.0 micromoles Gö6976, measured at 24 hours intervals for 4 days (FIG. 3)) was “reduced by approximately half each 24 hours”.
